Experimental data published in US10202347B2, “Compound, production method therefor, and use of said compound” (MICROBIAL CHEMISTRY RESEARCH FOUNDATION, priority 2013, dated 2019).

Test system: human stomach cancer cells MKN-74 and normal stromal cells derived from the human stomach, Hs738
Assay: Anti-cancer activity in vivo, Test Example 2-2: MKN-74 and stromal cells Hs738, subcutaneous tumor in nude mice
Set-up: species or system BALB/c nu/nu nude mice
Details: tumor transplanted together with stromal cells Hs738, intravenous administration at 12.5 mg/kg, FIGS. 1C, 1D
Procedure: A test was performed in the same manner as in Test Example 2-1 except that the use of the human stomach cancer cells MKN-74 alone in Test Example 2-1 was changed to use of the human stomach cancer cells MKN-74 and the normal stromal cells derived from the human stomach, Hs738.
Note that, a cell liquid and inoculation of the cell liquid to mice were as follows.
Cultured human stomach cancer cells MKN-74 and normal stromal cells derived from the human stomach, Hs738 were respectively trypsinized to be peeled off from the culture dishes. The above human stomach cancer cells MKN-74 (8×10^6 cells) and the above normal stromal cells derived from the human stomach, Hs738 (8×10^6 cells) were dispersed in 0.3 mL DMEM containing 10% FBS and mixed with 0.5 mL growth factor-reduced Matrigel (product of BD Biosciences Co.).
The above mixed cell liquid (0.1 mL) (a mixture of cancer cells: 1×10^6 cells, and stromal cells: 1×10^6 cells) was subcutaneously inoculated to the left groin region of the above mice.

SMILES: CCCCCCCc1c(C)c(=O)c2ccccc2n1CN=C(SC)SC [Structural Formula (13)]
- tumor suppression (tumor volume, tumor weight Day 21): significant suppression
